Several values for one entry are separate records, joined by “and”; a condition that tells them apart may be missing. Equal values may be shown once.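 In this assay, cells in 96-well plates receive the compound at five concentrations for 48 hours. Endpoints are linearly interpolated between the surrounding concentrations. At the GI50, growth is halved. TGI: concentration producing complete growth inhibition.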
Legend:
Assay in all cases: NCI-60 cell line screen, 48 h
M19-MEL melanoma = tested on: M19-MEL melanoma
DLD-1 colon = tested on: DLD-1 colon
DMS 114 small cell lung = tested on: DMS 114 small cell lung
LXFL 529 NSCLC = tested on: LXFL 529 NSCLC

`CC1C(=O)OC2CC[N+]3(CC(=O)c4ccc(Br)cc4)CC=C(COC(=O)C(C)(O)C1(C)O)C23` (stereo not given) gave a TGI (M19-MEL melanoma) greater than 375 µM, a TGI (DLD-1 colon) greater than 375 µM and a TGI (DMS 114 small cell lung) greater than 375 µM.
`N#C[S-].[Nd+3].c1cnc2c(c1)ccc1cccnc12.c1cnc2c(c1)ccc1cccnc12.c1cnc2c(c1)ccc1cccnc12` gave a GI50 (M19-MEL melanoma) of 566 nM, a TGI (M19-MEL melanoma) of 3.63 µM and a GI50 (DMS 114 small cell lung) of 1590 nM. For the same compound, the TGI (DMS 114 small cell lung) was 4.67 µM, the GI50 (LXFL 529 NSCLC) was 1840 nM and the TGI (LXFL 529 NSCLC) was 14.8 µM.
Work on `CN1C(=O)c2ccccc2NC(=O)c2cnn(C)c21` yielded a TGI (M19-MEL melanoma) greater than 100 µM, a TGI (DLD-1 colon) greater than 100 µM and a TGI (DMS 114 small cell lung) greater than 100 µM.
With `CC1=C(C)C(=O)O[C@@H]([C@](C)(O)[C@]2(O)CC[C@@]3(O)[C@@H]4C[C@H]5O[C@]56[C@@H](O)C=CC(=O)[C@]6(C)[C@H]4CC[C@]23C)C1` the GI50 (DLD-1 colon) was 666 nM and 162 nM, the TGI (DLD-1 colon) was 3.36 µM and 3.89 µM and the TGI (DMS 114 small cell lung) was 0.588 µM and 0.567 µM.
`Cc1cc(NC(=S)Nc2ccccc2)c(NC(=S)Nc2ccccc2)cc1C` was tested, and the TGI (M19-MEL melanoma) was greater than 100 µM and the TGI (DLD-1 colon) was greater than 100 µM.
Compound `O=C(O)CCCCCCC[C@@H]1S[C@H]1CCCCCCO` has a TGI (M19-MEL melanoma) greater than 100 µM, a TGI (DLD-1 colon) greater than 100 µM and a TGI (DMS 114 small cell lung) greater than 100 µM.

From PubChem BioAssay (NCI)
